pIC50, pKi: −log10 of the molar value.
Key:
[1] = molecular target: 5-hydroxytryptamine receptor 6 (Homo sapiens, UniProt P50406); assay type: cell membranes, HeLa, Membrane; details: for IC50: hela; for pIC50: read-out: IC50; for pKi: read-out: Ki; on all read-outs here: in other assays of this panel Not Active means under 50% inhibition at 10 µM
[2] = molecular target: C-C chemokine receptor type 5 (Homo sapiens, UniProt P51681); assay type: cell membranes, Membrane; details: hek293; further: in other assays of this panel Not Active means under 50% inhibition at 10 µM
[3] = DRUGMATRIX: GABAA, Muscimol, Central radioligand binding (ligand: [3H] Muscimol); assay type: cell membranes, Rattus norvegicus, Wistar, Brain, Membrane; details: Not Active = under 50% inhibition at 10 µM
[4] = molecular target: T1, 3-hydroxy-3-methylglutaryl-coenzyme A reductase (Homo sapiens, UniProt P04035); design: species or system Escherichia coli;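 further: enzyme inhibition assay of HMG-CoA reductase using radiolabeled [14C]HMG-CoA as substrate; in other assays of this panel Not Active means under 50% inhibition at 10 µM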
T1 sequence (P04035 whole entry): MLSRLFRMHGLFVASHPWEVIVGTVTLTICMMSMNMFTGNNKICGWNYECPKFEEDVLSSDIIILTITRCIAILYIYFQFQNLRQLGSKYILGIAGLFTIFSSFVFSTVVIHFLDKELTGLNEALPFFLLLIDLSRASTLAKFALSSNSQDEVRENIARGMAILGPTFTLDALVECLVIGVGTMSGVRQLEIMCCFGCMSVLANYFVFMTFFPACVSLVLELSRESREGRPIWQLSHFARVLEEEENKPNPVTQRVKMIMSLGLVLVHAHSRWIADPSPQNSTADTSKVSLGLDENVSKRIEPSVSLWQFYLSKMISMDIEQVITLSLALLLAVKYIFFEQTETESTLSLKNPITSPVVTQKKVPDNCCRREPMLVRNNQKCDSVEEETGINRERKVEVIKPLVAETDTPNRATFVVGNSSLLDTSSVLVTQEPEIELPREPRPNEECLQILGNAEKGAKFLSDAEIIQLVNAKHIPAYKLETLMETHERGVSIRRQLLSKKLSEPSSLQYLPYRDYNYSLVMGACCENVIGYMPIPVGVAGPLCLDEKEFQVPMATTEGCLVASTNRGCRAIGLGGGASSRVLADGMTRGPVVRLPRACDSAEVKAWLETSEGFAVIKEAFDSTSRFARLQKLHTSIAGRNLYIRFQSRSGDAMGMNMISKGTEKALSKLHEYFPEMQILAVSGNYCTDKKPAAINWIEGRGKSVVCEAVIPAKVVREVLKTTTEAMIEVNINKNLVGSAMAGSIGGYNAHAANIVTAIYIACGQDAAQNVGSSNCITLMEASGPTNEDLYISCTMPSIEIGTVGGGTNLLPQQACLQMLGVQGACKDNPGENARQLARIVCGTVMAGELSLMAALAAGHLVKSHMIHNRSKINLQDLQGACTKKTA

Leukotriene C4 synthase = molecular target: T2, Leukotriene C4 synthase (Cavia porcellus, UniProt A6XA80); assay type: tissue-based, Lung;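 further: enzyme inhibition assay of leukotriene C4 synthase, using LTA4 as the substrate; in other assays of this panel Not Active means under 50% inhibition at 10 µM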
T2 sequence (A6XA80 whole entry): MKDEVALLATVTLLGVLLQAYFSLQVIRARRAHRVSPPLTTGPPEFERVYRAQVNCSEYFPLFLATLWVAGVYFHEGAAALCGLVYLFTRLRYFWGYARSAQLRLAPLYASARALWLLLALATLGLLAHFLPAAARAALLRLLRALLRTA

[5] = molecular target: Mitogen-activated protein kinase 1 (Homo sapiens, UniProt P28482); experiment: DRUGMATRIX: Protein Serine/Threonine Kinase, ERK2 enzyme inhibition (substrate: Myelin Basic Protein); design: species or system Escherichia coli; details: Not Active = under 50% inhibition at 10 µM
Cytochrome P450 2C9 = Cytochrome P450 2C9 (Homo sapiens, UniProt P11712); details: bti-tn-5b1-4; further: in other assays of this panel Not Active means under 50% inhibition at 10 µM
Cytochrome P450 2E1 = Cytochrome P450 2E1 (Homo sapiens, UniProt P05181); details: bti-tn-5b1-4; further: in other assays of this panel Not Active means under 50% inhibition at 10 µM
Sequence of Cytochrome P450 2E1 (P05181 whole entry): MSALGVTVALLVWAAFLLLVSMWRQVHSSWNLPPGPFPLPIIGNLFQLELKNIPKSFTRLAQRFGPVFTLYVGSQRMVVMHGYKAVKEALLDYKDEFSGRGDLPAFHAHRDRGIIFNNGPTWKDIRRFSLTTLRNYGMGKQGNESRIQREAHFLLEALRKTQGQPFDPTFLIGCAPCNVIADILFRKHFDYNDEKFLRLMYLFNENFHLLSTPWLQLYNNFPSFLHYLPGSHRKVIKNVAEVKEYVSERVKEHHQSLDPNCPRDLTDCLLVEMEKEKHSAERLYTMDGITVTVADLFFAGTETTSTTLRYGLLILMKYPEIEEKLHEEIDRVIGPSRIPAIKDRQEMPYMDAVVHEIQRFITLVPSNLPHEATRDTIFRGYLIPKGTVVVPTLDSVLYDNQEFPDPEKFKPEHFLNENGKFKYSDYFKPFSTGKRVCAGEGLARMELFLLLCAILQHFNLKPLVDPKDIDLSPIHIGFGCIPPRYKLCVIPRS

Sequence of C-C chemokine receptor type 5 (P51681 whole entry): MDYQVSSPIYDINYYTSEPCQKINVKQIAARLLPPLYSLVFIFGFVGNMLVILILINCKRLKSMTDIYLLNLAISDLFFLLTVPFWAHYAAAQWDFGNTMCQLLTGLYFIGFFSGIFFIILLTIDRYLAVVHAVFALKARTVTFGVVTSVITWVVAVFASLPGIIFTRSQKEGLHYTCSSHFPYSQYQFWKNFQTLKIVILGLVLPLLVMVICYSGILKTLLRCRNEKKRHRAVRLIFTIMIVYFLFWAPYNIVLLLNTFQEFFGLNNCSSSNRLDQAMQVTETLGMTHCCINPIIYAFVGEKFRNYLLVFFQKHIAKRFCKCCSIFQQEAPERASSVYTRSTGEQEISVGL
Sequence of 5-hydroxytryptamine receptor 6 (P50406 whole entry): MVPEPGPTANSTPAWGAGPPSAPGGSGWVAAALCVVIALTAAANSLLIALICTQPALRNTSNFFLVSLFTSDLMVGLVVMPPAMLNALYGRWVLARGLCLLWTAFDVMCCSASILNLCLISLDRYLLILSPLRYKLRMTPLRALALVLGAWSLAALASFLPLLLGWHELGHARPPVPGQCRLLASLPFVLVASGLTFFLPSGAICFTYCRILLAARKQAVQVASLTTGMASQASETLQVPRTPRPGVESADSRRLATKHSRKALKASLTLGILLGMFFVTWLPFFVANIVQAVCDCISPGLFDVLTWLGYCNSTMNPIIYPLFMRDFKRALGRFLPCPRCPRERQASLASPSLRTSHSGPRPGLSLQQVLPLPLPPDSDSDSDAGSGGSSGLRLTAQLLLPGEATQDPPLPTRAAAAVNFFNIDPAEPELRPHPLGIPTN
Sequence of Mitogen-activated protein kinase 1 (P28482 whole entry): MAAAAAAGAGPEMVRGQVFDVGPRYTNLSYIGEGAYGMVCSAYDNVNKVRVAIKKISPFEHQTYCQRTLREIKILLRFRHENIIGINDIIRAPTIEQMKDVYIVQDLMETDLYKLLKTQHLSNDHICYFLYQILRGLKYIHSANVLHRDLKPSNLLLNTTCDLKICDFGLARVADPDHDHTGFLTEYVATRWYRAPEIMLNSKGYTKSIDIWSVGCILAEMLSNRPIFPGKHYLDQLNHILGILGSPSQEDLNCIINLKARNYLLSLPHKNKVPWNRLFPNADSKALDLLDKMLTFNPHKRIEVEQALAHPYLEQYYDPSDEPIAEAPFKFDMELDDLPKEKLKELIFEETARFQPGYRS
Sequence of Cytochrome P450 2C9 (P11712 whole entry): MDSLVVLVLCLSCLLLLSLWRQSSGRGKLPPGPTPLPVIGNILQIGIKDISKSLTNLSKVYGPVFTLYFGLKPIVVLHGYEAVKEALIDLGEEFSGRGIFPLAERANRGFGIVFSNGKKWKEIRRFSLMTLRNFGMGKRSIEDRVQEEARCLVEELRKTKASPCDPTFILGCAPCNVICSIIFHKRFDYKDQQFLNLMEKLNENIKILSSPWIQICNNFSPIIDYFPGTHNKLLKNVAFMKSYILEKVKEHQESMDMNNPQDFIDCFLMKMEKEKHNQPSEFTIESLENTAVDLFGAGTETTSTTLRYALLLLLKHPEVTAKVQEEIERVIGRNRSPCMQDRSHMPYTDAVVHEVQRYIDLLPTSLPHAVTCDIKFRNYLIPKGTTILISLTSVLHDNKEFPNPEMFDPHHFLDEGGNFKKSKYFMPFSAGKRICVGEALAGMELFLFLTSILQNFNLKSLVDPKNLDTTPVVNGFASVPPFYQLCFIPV

Row | Structure (SMILES) | IC50 [1] | IC50 [2] | IC50 [3] | Ki [3] | IC50 [4] | IC50 (Leukotriene C4 synthase) | IC50 [5] | IC50 (Cytochrome P450 2C9) | Ki (Cytochrome P450 2C9) | IC50 (Cytochrome P450 2E1) | Ki (Cytochrome P450 2E1) | pIC50 [1] | pKi [1]
1 | CCCCC1=NC2(CCCC2)C(=O)N1Cc1ccc(-c2ccccc2-c2nnn[nH]2)cc1 [IRBESARTAN] | Not Active | Not Active | Not Active | Not Active | Not Active | Not Active | Not Active | Not Active | Not Active | Not Active | Not Active | – | –
2 | CN1CCC(=C2c3ccccc3CC(=O)c3sccc32)CC1 [KETOTIFEN] | – | Not Active | Not Active | Not Active | Not Active | Not Active | Not Active | Not Active | Not Active | Not Active | Not Active | 5.94 | 6.28
3 | C[N+](C)(C)C[C@H](O)CC(=O)[O-] [LEVOCARNITINE] | Not Active | Not Active | Not Active | Not Active | Not Active | Not Active | Not Active | Not Active | Not Active | Not Active | Not Active | – | –
4 | C[C@H]1COc2c(N3CCN(C)CC3)c(F)cc3c(=O)c(C(=O)O)cn1c23.C[C@H]1COc2c(N3CCN(C)CC3)c(F)cc3c(=O)c(C(=O)O)cn1c23.O [LEVOFLOXACIN] | Not Active | Not Active | Not Active | Not Active | Not Active | Not Active | Not Active | Not Active | Not Active | Not Active | Not Active | – | –
5 | CCn1cc(C(=O)O)c(=O)c2cc(F)c(N3CCNC(C)C3)c(F)c21 (configuration not stated) [LOMEFLOXACIN] | Not Active | Not Active | Not Active | Not Active | Not Active | Not Active | Not Active | Not Active | Not Active | Not Active | Not Active | – | –
6 | CN1CCCC(CN2c3ccccc3Sc3ccccc32)C1 (configuration not stated) [MEPAZINE] | – | Not Active | Not Active | Not Active | Not Active | Not Active | Not Active | Not Active | Not Active | Not Active | Not Active | 5.74 | 6.07
7 | Cc1cccc(C)c1NC(=O)C1CCCCN1C (configuration not stated) [MEPIVACAINE] | Not Active | Not Active | Not Active | Not Active | Not Active | Not Active | Not Active | Not Active | Not Active | Not Active | Not Active | – | –
8 | CN(C)C(=N)NC(=N)N [METFORMIN] | Not Active | Not Active | Not Active | Not Active | Not Active | Not Active | Not Active | Not Active | Not Active | Not Active | Not Active | – | –
9 | C[C@]12CC[C@H]3[C@@H](CCC4=CC(=O)CC[C@@H]43)[C@@H]1CC[C@@H]2O [NANDROLONE] | Not Active | Not Active | Not Active | Not Active | Not Active | Not Active | Not Active | Not Active | Not Active | Not Active | Not Active | – | –
10 | CN(C)C(=O)Oc1cccc([N+](C)(C)C)c1.[Br-] [NEOSTIGMINE BROMIDE] | Not Active | Not Active | Not Active | Not Active | Not Active | Not Active | Not Active | Not Active | Not Active | Not Active | Not Active | – | –
11 | NC(=O)c1cccnc1 [NIACINAMIDE] | Not Active | Not Active | Not Active | Not Active | Not Active | Not Active | Not Active | Not Active | Not Active | Not Active | Not Active | – | –
12 | CS(=O)(=O)Nc1ccc([N+](=O)[O-])cc1Oc1ccccc1 [NIMESULIDE] | Not Active | Not Active | Not Active | Not Active | Not Active | Not Active | Not Active | Not Active | Not Active | Not Active | Not Active | – | –
13 | CN1C(=O)CN=C(c2ccccc2)c2cc([N+](=O)[O-])ccc21 [NIMETAZEPAM] | Not Active | Not Active | Not Active | Not Active | Not Active | Not Active | Not Active | Not Active | Not Active | Not Active | Not Active | – | –
14 | C[C@@H]1O[C@@H](O[C@H]2C[C@@H](O)[C@]3(CO)[C@H]4[C@H](O)C[C@]5(C)[C@@H](C6=CC(=O)OC6)CC[C@]5(O)[C@@H]4CC[C@]3(O)C2)[C@H](O)[C@H](O)[C@H]1O [OUABAIN] | Not Active | Not Active | Not Active | Not Active | Not Active | Not Active | Not Active | Not Active | Not Active | Not Active | Not Active | – | –
15 | NC(=O)N1c2ccccc2CC(=O)c2ccccc21 [OXCARBAZEPINE] | Not Active | Not Active | Not Active | Not Active | Not Active | Not Active | Not Active | Not Active | Not Active | Not Active | Not Active | – | –
16 | COc1ccnc(C[S+]([O-])c2nc3ccc(OC(F)F)cc3[nH]2)c1OC (configuration not stated) [PANTOPRAZOLE] | Not Active | Not Active | Not Active | Not Active | Not Active | Not Active | Not Active | Not Active | Not Active | Not Active | Not Active | – | –
17 | CCc1ccc(CCOc2ccc(CC3SC(=O)NC3=O)cc2)nc1 (configuration not stated) [PIOGLITAZONE] | Not Active | Not Active | Not Active | Not Active | Not Active | Not Active | Not Active | Not Active | Not Active | Not Active | Not Active | – | –
18 | CCCNC(C)C(=O)Nc1ccccc1C (configuration not stated) [PRILOCAINE] | Not Active | Not Active | Not Active | Not Active | Not Active | Not Active | Not Active | Not Active | Not Active | Not Active | Not Active | – | –
19 | CCN(CC)CCNC(=O)c1ccc(N)cc1 [PROCAINAMIDE] | Not Active | Not Active | Not Active | Not Active | Not Active | Not Active | Not Active | Not Active | Not Active | Not Active | Not Active | – | –
20 | CCN(CC)CCCC(C)Nc1c2ccc(Cl)cc2nc2ccc(OC)cc12 (configuration not stated) [QUINACRINE] | Not Active | Not Active | Not Active | Not Active | Not Active | Not Active | Not Active | Not Active | Not Active | Not Active | Not Active | – | –

— ChEMBL document CHEMBL1909046, “DrugMatrix in vitro pharmacology data”
